Source: ChEMBL document CHEMBL3879884, “Compounds and therapeutical use thereof” (2005)
The source made the active and inactive calls. No cut-off for these calls is given here.

Tests used:
Escherichia coli = test: Binding affinity to Escherichia coli supercoiled pRYG DNA assessed as reduction of DNA topoisomerase-1-mediated relaxation of supercoiled DNA at 1 to 10 uM by agarose gel electrophoresis
[1] = target: T1, DNA topoisomerase II (Homo sapiens) (UniProt P11388+Q02880); test: Inhibition of DNA topoisomerase-2 (unknown origin) assessed as decrease in relaxation of supercoiled pRYG DNA at 1 to 10 uM after 50 mins by agarose gel electrophoresis; assay type: protein assay
[2] = target: T1, DNA topoisomerase II (Homo sapiens); test: Binding affinity to p170 form of human DNA topoisomerase-2 at 50 nM in presence of UV irradiation after 60 mins by agarose gel electrophoresis; assay type: protein assay; details: tested as the 3H-labelled form
[3] = Cytotoxicity against human DLD cells assessed as inhibition of cell proliferation after 48 hrs by CellTiter-Glo assay; assay type: functional
[4] = target: T1, DNA topoisomerase II (Homo sapiens); test: Inhibition of DNA topoisomerase-2 (unknown origin) assessed as decrease in relaxation of supercoiled pRYG DNA at 12.5 to 100 uM after 50 mins by ethidium bromide staining-based agarose gel electrophoresis; assay type: protein assay

CC[n+]1c(-c2ccccc2)c2cc(N)ccc2c2ccc(N)cc21
Activity (Escherichia coli): Active
inhibition [1]: Active

Cc1nc(N(C)c2ccc(N=[N+]=[N-])cc2)c2ccccc2n1
Activity [2]: Active

COc1ccc(Nc2nc(Cl)nc3ccccc23)cc1
GI50 [3]: > 10 µM

COc1ccc(N(C)c2nc(Cl)nc3ccccc23)cc1
inhibition [4]: Active
